Test results taken from paper PMC6915745, “TRIB3 supports breast cancer stemness by suppressing FOXO1 degradation and enhancing SOX2 transcription” (Nature Communications, 2019).

How the values were obtained:
[1] = test system: TRIB3-silenced MCF7 cells; assay: Immunoblot of AKT1/FOXO1/SOX2, TRIB3-silenced MCF7 cells with AKT1 inhibitor MK2206; format: cell-based, human; settings: TRIB3-silenced MCF7 cells, 24 h
Text: Fig. 6 TRIB3 abrogates the AKT-FOXO1 interaction. a Supervised clustering of MCF7 cells transfected with CTRL-shRNA or TRIB3-shRNA using the log2-transformed values for genes in the FOXO1 upstream pathway, including AMPK, ERK, PI3K, p38, and JNK clustered genes expressed in all samples. Each column represents a separate case. Z-scores from IPA depicting the subnetwork gene expression differences between CTRL-shRNA and TRIB3-shRNA cases. The Z-score heat map depicts the five FOXO1 upstream subnetworks. Each row represents the data for the subnetwork indicated in the right margin. b, c TRIB3 inhibited the activity of AKT1 in BCCs. The indicated stable expression cell extracts were prepared and the levels of the indicated proteins were detected by immunoblotting. d, e The effects of the AKT1 agonist or antagonist for TRIB3-FOXO1-SOX2 axis in BCCs. The indicated cells were treated with the AKT1 agonist SC79 or the antagonist MK2206 for 24 h. […] HMLE cell extracts were IP with an anti-AKT1 Ab and blotted with an anti-TRIB3 or anti-FOXO1 Ab in the presence of the indicated concentration of the TRIB3-GST protein. Data are shown as the mean ± SEM; P > 0.05 was considered not significant (NS); *P < 0.05, **P < 0.01, and ***P < 0.001 compared with the vector or CTRL-shRNA group. Source data are provided as a Source Data file.
(§1) Cycloheximide (CHX; Sigma Aldrich, R750107) was used as a protein synthesis inhibitor to assess the stability of the existing proteins. To assess protein stability, cells were treated with 20 μM CHX and the proteasome inhibitor MG132 (Sigma Aldrich, R750107) at 10 μM or the autophagy inhibitor BAF (Sigma Aldrich, B1793) at 200 nM for the indicated times. Protein expression was assessed via immunoblot analysis with cell lysates (20–60 μg) prepared in RIPA lysis buffer containing protease inhibitors (Roche) using anti-SOX2 (3529), anti-NANOG (4903), anti-OCT4 (2750), anti-KLF4 (4038), anti-c-Myc (13987), anti-FOXO1 (2880), anti-p-FOXO1 (9461), anti-AKT (4685), anti-p-AKT (4060), anti-β-ACTIN (4970), anti-Ubiquitin (3936), or anti-LaminA/C (4777) antibodies from CST; anti-TRIB3 antibody (ab75846) from Abcam; and anti-Trib3 antibody (PA5-15480) from Thermo Fisher Scientific[59]. All antibodies were used at 1:1000 dilution, with the exception of anti-β-Actin antibodies, which were used at 1:2000 dilution. The protein concentrations were determined by BCA Protein Assay Kits (Pierce). Proteins were separated by SDS-polyacrylamide gel electrophoresis (PAGE) and transferred to polyvinylidene difluoride membrane.

[2] = test system: TRIB3-silenced MDA-MB-231 cells; assay: Immunoblot of AKT1/FOXO1/SOX2, TRIB3-silenced MDA-MB-231 cells with AKT1 inhibitor MK2206; format: cell-based; settings: 24 hr
Protocol: as §1, with “Proteins were separated by SDS-polyacrylamide gel electrophoresis (PAGE) and transferred to polyvinylidene difluoride membrane.” left out
indicated proteins were detected by immunoblotting. […]
MK2206 for 24 hr. Cell extracts were prepared and the levels of the indicated proteins were detected […]
levels of the indicated proteins were detected by immunoblotting. […]
glucose (HG) for 24 hr was detected by Western blotting. […]

TRIB3-GST protein = target: T1, TRIB3-GST protein (Homo sapiens, UniProt Q96RU7); assay: SPR binding kinetics of peptides to TRIB3 (BIAcore T200); settings: in words
T1 construct: purchased Sino, China
T1 sequence (Q96RU7 1-358): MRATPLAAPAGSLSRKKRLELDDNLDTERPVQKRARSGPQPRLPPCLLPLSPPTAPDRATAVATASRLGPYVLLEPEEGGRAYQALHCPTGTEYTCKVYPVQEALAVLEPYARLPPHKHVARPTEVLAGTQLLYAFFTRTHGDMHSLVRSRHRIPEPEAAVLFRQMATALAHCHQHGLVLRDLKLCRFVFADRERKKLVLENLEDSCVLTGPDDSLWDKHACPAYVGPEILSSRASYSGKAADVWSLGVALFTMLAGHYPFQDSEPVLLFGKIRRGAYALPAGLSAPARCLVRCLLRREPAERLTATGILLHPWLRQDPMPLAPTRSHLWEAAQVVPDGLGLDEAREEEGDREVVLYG
Protocol: Peptide Ae, alanine mutants of Ae (M1-M13), Pep2–con and Pep2–Ae were synthesized by Guoping Pharmaceutical, Co. (China). The Surface plasmon resonance binding kinetics between TRIB3 and the indicated peptides were analyzed by using a BIAcore T200 system (GE Healthcare)[14]. Briefly, TRIB3-GST protein (Sino, China) was immobilized onto four individual flow cells in a CM5 sensor chip (GE Healthcare) through a standard coupling protocol. To measure the binding kinetics, the indicated peptide (2.5~0.009 μM in 2-fold serial dilutions) and a buffer blank for baseline subtraction were sequentially injected, with a regeneration step (glycine, pH 2.5) inserted between each cycle. The equilibrium dissociation constant (KD) was calculated according to BIA-evaluation software.

FOXO1 = settings: HEPG2 cells, after insulin activation of PI3K-AKT; 12-hr under sera deprivation; ref Matsuzaki et al. (2003, PNAS); cited from earlier work
[3] = target: AKT1, endogenous in human cells (human (endogenous in HMLE, MCF7, …, UniProt P31749 1-480)); assay: cell-based or functional assay
AKT1, endogenous in human cells (human, sequence (P31749 whole entry): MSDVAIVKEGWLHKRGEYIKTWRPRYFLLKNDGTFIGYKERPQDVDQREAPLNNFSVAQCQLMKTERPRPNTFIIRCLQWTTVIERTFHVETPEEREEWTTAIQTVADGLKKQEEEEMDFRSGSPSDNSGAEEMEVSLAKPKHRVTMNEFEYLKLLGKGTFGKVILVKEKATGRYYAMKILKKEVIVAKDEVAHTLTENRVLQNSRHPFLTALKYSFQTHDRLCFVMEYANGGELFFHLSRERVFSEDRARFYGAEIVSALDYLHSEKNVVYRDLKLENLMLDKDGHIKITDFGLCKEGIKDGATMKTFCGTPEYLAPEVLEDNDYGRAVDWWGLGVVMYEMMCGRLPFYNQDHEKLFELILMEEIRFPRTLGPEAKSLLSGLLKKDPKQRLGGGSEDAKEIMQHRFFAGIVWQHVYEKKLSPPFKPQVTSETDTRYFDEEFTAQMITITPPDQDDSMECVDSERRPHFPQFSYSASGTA

AKT1-FOXO1 interaction = assay: Co-IP of AKT1-FOXO1 interaction in HMLE cell extracts with TRIB3-GST protein; format: binding, human; settings: IP anti-AKT1
Text: Fig. 6 TRIB3 abrogates the AKT-FOXO1 interaction. a Supervised clustering of MCF7 cells transfected with CTRL-shRNA or TRIB3-shRNA using the log2-transformed values for genes in the FOXO1 upstream pathway, including AMPK, ERK, PI3K, p38, and JNK clustered genes expressed in all samples. Each column represents a separate case. Z-scores from IPA depicting the subnetwork gene expression differences between CTRL-shRNA and TRIB3-shRNA cases. The Z-score heat map depicts the five FOXO1 upstream subnetworks. Each row represents the data for the subnetwork indicated in the right margin. b, c TRIB3 inhibited the activity of AKT1 in BCCs. The indicated stable expression cell extracts were prepared and the levels of the indicated proteins were detected by immunoblotting. d, e The effects of the AKT1 agonist or antagonist for TRIB3-FOXO1-SOX2 axis in BCCs. The indicated cells were treated with the AKT1 agonist SC79 or the antagonist MK2206 for 24 h. […]
Cell pellets were lysed with coimmunoprecipitation buffer (25 mM Tri-cl (pH 7.4), 150 mM NaCl, 0.5% NP-40, 2.5 mM MgCl, 0.5 mM EDTA, 5% Glycerol), incubated with IP antibodies overnight at 4 °C with shaking, and then incubated with Protein A/G Plus-Agarose (Santa Cruz Biotechnology) for 2 h at 4 °C[15]. Interaction complexes were separated from the beads by boiling for 10 min and then subjected to SDS-PAGE and detected with immunoblotting.

NC1(c2ccc(-c3nc4ccn5c(=O)[nH]nc5c4cc3-c3ccccc3)cc2)CCC1 [MK2206, reference compound]
FOXO1 and SOX2 expression [1]: rescued FOXO1 and SOX2 expression | activity of AKT1 S473 and FOXO1 S256 [1]: suppressed the activity of AKT1^S473 and FOXO1^S256 | FOXO1 and SOX2 expression [2]: rescued FOXO1 and SOX2 expression | activity of AKT1 S473 and FOXO1 S256 [2]: suppressed the activity of AKT1^S473 and FOXO1^S256

AAHTAAENRV AAA [Pep2–con, reference compound]
interaction with TRIB3 of control peptide (TRIB3-GST protein; authors' reply to reviewers): no interaction with TRIB3

Ae: α-helical peptide which mimics the AKT1 191–204 α-helical region (EVAHTLTENRVLQN; UniProt P31749 191-204, looked up, fragment)
binding affinity with TRIB3, rank among α-helical peptides (TRIB3-GST protein; SPR, series of α-helical peptides of AKT1 catalytic domain): displayed the best binding affinity with TRIB3 among all the α-helical peptides analyzed

insulin: insulin activation of the PI3K-AKT signaling pathway
FOXO1 half-life (FOXO1): approximately 6 hr

B1: Tribbles homolog 3 (TRIB3), endogenous in human breast cancer cells (natural protein, UniProt Q96RU7 1-358, looked up)
chain: MRATPLAAPAGSLSRKKRLELDDNLDTERPVQKRARSGPQPRLPPCLLPLSPPTAPDRATAVATASRLGPYVLLEPEEGGRAYQALHCPTGTEYTCKVYPVQEALAVLEPYARLPPHKHVARPTEVLAGTQLLYAFFTRTHGDMHSLVRSRHRIPEPEAAVLFRQMATALAHCHQHGLVLRDLKLCRFVFADRERKKLVLENLEDSCVLTGPDDSLWDKHACPAYVGPEILSSRASYSGKAADVWSLGVALFTMLAGHYPFQDSEPVLLFGKIRRGAYALPAGLSAPARCLVRCLLRREPAERLTATGILLHPWLRQDPMPLAPTRSHLWEAAQVVPDGLGLDEAREEEGDREVVLYG
half-life of FOXO1 degradation in MCF7 cells treated with Pep2–Ae (Supplementary Fig. 10d) [3]: 36 min

B2: TRIB3-GST protein: TRIB3-GST protein (Sino, China) (protein)
chain: MRATPLAAPAGSLSRKKRLELDDNLDTERPVQKRARSGPQPRLPPCLLPLSPPTAPDRATAVATASRLGPYVLLEPEEGGRAYQALHCPTGTEYTCKVYPVQEALAVLEPYARLPPHKHVARPTEVLAGTQLLYAFFTRTHGDMHSLVRSRHRIPEPEAAVLFRQMATALAHCHQHGLVLRDLKLCRFVFADRERKKLVLENLEDSCVLTGPDDSLWDKHACPAYVGPEILSSRASYSGKAADVWSLGVALFTMLAGHYPFQDSEPVLLFGKIRRGAYALPAGLSAPARCLVRCLLRREPAERLTATGILLHPWLRQDPMPLAPTRSHLWEAAQVVPDGLGLDEAREEEGDREVVLYG
modifications: left off: GST, end not stated, kept
AKT1-FOXO1 interaction (AKT1-FOXO1 interaction): inhibited the AKT1-FOXO1 interaction by binding to AKT1
